{"source": "patent US5567704A", "about": "“R-enatiomerically pure hydroxylated xanthine compounds to treat baldness” (priority 1995, dated 1996)", "key": {"[1]": {"experiment": "endotoxin induced lethality in mice (survival)", "type": "in vivo, mouse", "settings": "mouse, in vivo, ip; CT1501R alone, no LPS, ten mice, same schedule", "description": "(§1) Animals were treated with 10 μg/gm of LPS (i.v.) Immediately following the LPS (t=0), 2 hrs after the LPS (t=2) or 4 hrs following LPS (t=4) the mice were treated with their first treatment of CT1501R (100 mg/kg, i.p.). The mice were treated with CT1501R three times per day thereafter, and animal survival was monitored.\n(§2) This example illustrates the effect of CT1501R on survival in mice given a lethal dose of endotoxin. We determined if CT1501R protects against endotoxin induced lethality in a murine model. Septic shock was modeled by endotoxin injection of 6-8 week old female Balb/c mice similar to previously published reports (Ashkenazi et al. Proc. Natl. Acad. Sci. U.S.A. 88: 10535-10539, 1991.) under protocols approved by the Animal Use Committee of the Biomembrane Institute, Seattle, Wash. Animals were injected intravaneously (i.v.) with an approximate LD100 dose (10 μg) of Salmonella abortus equi-derived endotoxin (Sigma Chemical Co., L-1887) in phosphate buffered saline (PBS). […] Control mice were injected at the same times with a similar volume of vehicle control (PBS). Survival was followed for at least 72 hours.\n(§3) Ten mice were treated each with PBS alone or CT1501R alone on the same schedule as the experimental mice. […] Endotoxin survival data were summarized from a total of six (6) independent experiments. Summary Table 1 details the results of each of the six experiments. In FIG. 5, each time point represents a minimum of three (3) experiments comprising at least twenty (20) mice per group. A probability analysis of the survival data using a Fisher's Exact One Tailed Test is given as Table 3. Significant protection was conferred if CT1501R was administered immediately after the LPS treatment. The cumulative percent survival at 72 hours post LPS treatment was 60% compared to 7% for the LPS-only treated animals (p=<0.0005; Table 3)."}, "[2]": {"test_system": "Balb/c mice given a lethal dose of endotoxin", "experiment": "endotoxin induced lethality in mice (survival)", "type": "in vivo, mouse", "settings": "for cumulative percent survival: 72 hours post LPS", "description": "as §1, §2, §3"}, "TNF-α": {"test_system": "TNF-α", "experiment": "mouse plasma TNF-α ELISA after endotoxin", "type": "in vivo", "settings": "for Plasma TNF: LPS + CT-1501R", "description": "For ELISA measurements of cytokine levels in plasma, blood was collected by retro-orbital or cardiac puncture of anesthetized mice, immediately centrifuged and the EDTA plasma stored at -70° C. Particulate free plasma was thawed on ice and cytokine levels determined utilizing commercial ELISA assays with normal mouse plasma used to generate standard curves. Murine tumor necrosis factor-α and interleukin-1αkits were purchased from Genzyme (Cambridge, Mass.) and Endogen (Boston, Mass.), respectively. Each data point was an average of two ELISA measurements made from EDTA […] pooled from three mice. The data summarized in Table 3 were compiled from two independent experiments; data from Table 4 and 5 were from single experiments of three mice per data point.\nLevels of TNF-α, IL-1α and IL-6 were measured in the plasma of mice as a function of time following treatment with S. abortus endotoxin. […] TNF-α levels peaked within 1 hour of treatment of endotoxin (Table 4 and FIG. 6). Treatment of the mice with CT1501R decreased the levels of TNF-α in the EDTA plasma of endotoxin treated mice at all time points measured. In particular, peak levels of TNF-α at 0.5 and 1 hour post endotoxin were decreased 2.5 and 2.6 fold respectively in the CT1501R treated mice."}}, "data": [{"molecule": "C[C@@H](O)CCCCn1c(=O)c2c(ncn2C)n(C)c1=O", "note": "[CT1501R, (R)-1-(5-hydroxyhexyl)-3,7-dimethylxanthine]", "values": [{"measurement": "survival", "setting": "[1]", "value": 100, "unit": "%"}, {"measurement": "cumulative percent survival", "setting": "[2]; CT1501R four hours after LPS", "value": 37, "unit": "%"}, {"measurement": "cumulative percent survival", "setting": "[2]; CT1501R immediately after LPS", "value": 60, "unit": "%"}, {"measurement": "cumulative percent survival", "setting": "[2]; CT1501R two hours after LPS", "value": 55, "unit": "%"}, {"measurement": "adverse effects", "setting": "[2]; CT1501R alone, no LPS, ten mice, same schedule", "value": "no adverse effects noted"}, {"measurement": "Survival (Number Surviving/Total)", "setting": "[2]; Expt. 1, CT-1501R t = 0 Hr post LPS, 24 Hr post LPS", "value": "4/5"}, {"measurement": "Survival (Number Surviving/Total)", "setting": "[2]; Expt. 1, CT-1501R t = 0 Hr post LPS, 48 Hr post LPS", "value": "4/5"}, {"measurement": "Survival (Number Surviving/Total)", "setting": "[2]; Expt. 1, CT-1501R t = 0 Hr post LPS, 72 Hr post LPS", "value": "4/5"}, {"measurement": "Survival (Number Surviving/Total)", "setting": "[2]; Expt. 1, CT-1501R t = 2 Hr post LPS, 24 Hr post LPS", "value": "4/5"}, {"measurement": "Survival (Number Surviving/Total)", "setting": "[2]; Expt. 1, CT-1501R t = 2 Hr post LPS, 48 Hr post LPS", "value": "3/5"}, {"measurement": "Survival (Number Surviving/Total)", "setting": "[2]; Expt. 1, CT-1501R t = 2 Hr post LPS, 72 Hr post LPS", "value": "3/5"}, {"measurement": "Survival (Number Surviving/Total)", "setting": "[2]; Expt. 2, CT-1501R t = 0 Hr post LPS, 24 Hr post LPS", "value": "5/5"}, {"measurement": "Survival (Number Surviving/Total)", "setting": "[2]; Expt. 2, CT-1501R t = 0 Hr post LPS, 48 Hr post LPS", "value": "5/5"}, {"measurement": "Survival (Number Surviving/Total)", "setting": "[2]; Expt. 2, CT-1501R t = 0 Hr post LPS, 72 Hr post LPS", "value": "5/5"}, {"measurement": "Survival (Number Surviving/Total)", "setting": "[2]; Expt. 2, CT-1501R t = 2 Hr post LPS, 24 Hr post LPS", "value": "5/5"}, {"measurement": "Survival (Number Surviving/Total)", "setting": "[2]; Expt. 2, CT-1501R t = 2 Hr post LPS, 48 Hr post LPS", "value": "5/5"}, {"measurement": "Survival (Number Surviving/Total)", "setting": "[2]; Expt. 2, CT-1501R t = 2 Hr post LPS, 72 Hr post LPS", "value": "5/5"}, {"measurement": "Survival (Number Surviving/Total)", "setting": "[2]; Expt. 3, CT-1501R t = 4 Hr post LPS, 24 Hr post LPS", "value": "5/5"}, {"measurement": "Survival (Number Surviving/Total)", "setting": "[2]; Expt. 3, CT-1501R t = 4 Hr post LPS, 48 Hr post LPS", "value": "3/5"}, {"measurement": "Survival (Number Surviving/Total)", "setting": "[2]; Expt. 3, CT-1501R t = 4 Hr post LPS, 72 Hr post LPS", "value": "3/5"}, {"measurement": "Survival (Number Surviving/Total)", "setting": "[2]; Expt. 4, CT-1501R t = 4 Hr post LPS, 24 Hr post LPS", "value": "7/10"}, {"measurement": "Survival (Number Surviving/Total)", "setting": "[2]; Expt. 4, CT-1501R t = 4 Hr post LPS, 48 Hr post LPS", "value": "5/10"}, {"measurement": "Survival (Number Surviving/Total)", "setting": "[2]; Expt. 4, CT-1501R t = 4 Hr post LPS, 72 Hr post LPS", "value": "5/10"}, {"measurement": "Survival (Number Surviving/Total)", "setting": "[2]; Expt. 5, CT-1501R t = 0 Hr post LPS, 24 Hr post LPS", "value": "9/10"}, {"measurement": "Survival (Number Surviving/Total)", "setting": "[2]; Expt. 5, CT-1501R t = 0 Hr post LPS, 48 Hr post LPS", "value": "7/10"}, {"measurement": "Survival (Number Surviving/Total)", "setting": "[2]; Expt. 5, CT-1501R t = 0 Hr post LPS, 72 Hr post LPS", "value": "3/10"}, {"measurement": "Survival (Number Surviving/Total)", "setting": "[2]; Expt. 5, CT-1501R t = 2 Hr post LPS, 24 Hr post LPS", "value": "5/10"}, {"measurement": "Survival (Number Surviving/Total)", "setting": "[2]; Expt. 5, CT-1501R t = 2 Hr post LPS, 48 Hr post LPS", "value": "3/10"}, {"measurement": "Survival (Number Surviving/Total)", "setting": "[2]; Expt. 5, CT-1501R t = 2 Hr post LPS, 72 Hr post LPS", "value": "3/10"}, {"measurement": "Survival (Number Surviving/Total)", "setting": "[2]; Expt. 5, CT-1501R t = 4 Hr post LPS, 24 Hr post LPS", "value": "7/10"}, {"measurement": "Survival (Number Surviving/Total)", "setting": "[2]; Expt. 5, CT-1501R t = 4 Hr post LPS, 48 Hr post LPS", "value": "4/10"}, {"measurement": "Survival (Number Surviving/Total)", "setting": "[2]; Expt. 5, CT-1501R t = 4 Hr post LPS, 72 Hr post LPS", "value": "2/10"}, {"measurement": "Survival (Number Surviving/Total)", "setting": "[2]; Expt. 6, CT-1501R t = 4 Hr post LPS, 24 Hr post LPS", "value": "3/10"}, {"measurement": "Survival (Number Surviving/Total)", "setting": "[2]; Expt. 6, CT-1501R t = 4 Hr post LPS, 48 Hr post LPS", "value": "3/10"}, {"measurement": "Survival (Number Surviving/Total)", "setting": "[2]; Expt. 6, CT-1501R t = 4 Hr post LPS, 72 Hr post LPS", "value": "3/10"}, {"measurement": "survival compared with published results of Genentech's bifunctional TNF receptor", "setting": "[2]; drug simultaneously or two hours after lethal LPS, FIGS. 15 and 16", "value": "consistently was better at improving survival than Genentech's TNF receptor"}, {"measurement": "Cumulative survival (Number Surviving/Total)", "setting": "[2]; n = 3 expts, CT-1501R t = 0 Hr post LPS, 24 Hr post LPS", "value": "18/20"}, {"measurement": "Cumulative survival (Number Surviving/Total)", "setting": "[2]; n = 3 expts, CT-1501R t = 0 Hr post LPS, 48 Hr post LPS", "value": "16/20"}, {"measurement": "Cumulative survival (Number Surviving/Total)", "setting": "[2]; n = 3 expts, CT-1501R t = 0 Hr post LPS, 72 Hr post LPS", "value": "12/20"}, {"measurement": "Cumulative survival (Number Surviving/Total)", "setting": "[2]; n = 3 expts, CT-1501R t = 2 Hr post LPS, 24 Hr post LPS", "value": "14/20"}, {"measurement": "Cumulative survival (Number Surviving/Total)", "setting": "[2]; n = 3 expts, CT-1501R t = 2 Hr post LPS, 48 Hr post LPS", "value": "11/20"}, {"measurement": "Cumulative survival (Number Surviving/Total)", "setting": "[2]; n = 3 expts, CT-1501R t = 2 Hr post LPS, 72 Hr post LPS", "value": "11/20"}, {"measurement": "Cumulative survival (Number Surviving/Total)", "setting": "[2]; n = 4 expts, CT-1501R t = 4 Hr post LPS, 24 Hr post LPS", "value": "22/35"}, {"measurement": "Cumulative survival (Number Surviving/Total)", "setting": "[2]; n = 4 expts, CT-1501R t = 4 Hr post LPS, 48 Hr post LPS", "value": "15/35"}, {"measurement": "Cumulative survival (Number Surviving/Total)", "setting": "[2]; n = 4 expts, CT-1501R t = 4 Hr post LPS, 72 Hr post LPS", "value": "13/35"}, {"measurement": "fold decrease of plasma TNF-α", "setting": "TNF-α; 0.5 hour post endotoxin", "value": 2.5, "unit": "fold"}, {"measurement": "fold decrease of plasma TNF-α", "setting": "TNF-α; 1 hour post endotoxin", "value": 2.6, "unit": "fold"}, {"measurement": "Plasma TNF", "setting": "TNF-α; 0 hours post LPS", "value": 0, "unit": "pg/mL"}, {"measurement": "Plasma TNF", "setting": "TNF-α; 0.17 hours post LPS", "value": 6, "unit": "pg/mL"}, {"measurement": "Plasma TNF", "setting": "TNF-α; 0.5 hours post LPS", "value": 390, "unit": "pg/mL"}, {"measurement": "Plasma TNF", "setting": "TNF-α; 1 hour post LPS", "value": 1728, "unit": "pg/mL"}, {"measurement": "Plasma TNF", "setting": "TNF-α; 2 hours post LPS", "value": 940, "unit": "pg/mL"}, {"measurement": "Plasma TNF", "setting": "TNF-α; 4 hours post LPS", "value": 400, "unit": "pg/mL"}, {"measurement": "Plasma TNF", "setting": "TNF-α; 6 hours post LPS", "value": 350, "unit": "pg/mL"}]}]}
